The values that follow come from US8329675B2, “Inhibitors of fatty acid amide hydrolase” (Infinity Pharmaceuticals, Inc., priority 2006, dated 2012).

Structures are written as SMILES. pKi: −log10 of the molar value. A value given as a limit tells only on which side of the number the result lay.

One assay has as its target T1, human FAAH (Homo sapiens, UniProt O00519).
T1 construct: host or cells: COS-7 cells, transient transfection; 13,000 g membrane fraction solubilised in 1% Triton X-100
T1 sequence (O00519 1-579): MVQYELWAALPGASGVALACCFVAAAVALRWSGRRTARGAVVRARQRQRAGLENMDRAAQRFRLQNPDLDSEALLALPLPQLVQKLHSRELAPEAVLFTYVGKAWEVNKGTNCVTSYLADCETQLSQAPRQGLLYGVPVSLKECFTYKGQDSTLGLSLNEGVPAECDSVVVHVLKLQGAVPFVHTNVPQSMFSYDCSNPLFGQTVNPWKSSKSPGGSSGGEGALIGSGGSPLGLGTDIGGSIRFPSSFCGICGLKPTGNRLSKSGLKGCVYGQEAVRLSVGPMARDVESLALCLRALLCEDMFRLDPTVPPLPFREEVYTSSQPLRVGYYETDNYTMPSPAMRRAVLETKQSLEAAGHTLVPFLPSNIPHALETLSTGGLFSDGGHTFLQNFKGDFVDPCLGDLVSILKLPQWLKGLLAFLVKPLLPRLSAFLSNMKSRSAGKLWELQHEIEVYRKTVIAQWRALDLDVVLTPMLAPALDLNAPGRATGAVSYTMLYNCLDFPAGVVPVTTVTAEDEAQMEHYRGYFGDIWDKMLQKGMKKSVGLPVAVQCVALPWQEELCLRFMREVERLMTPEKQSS
The assay is described as follows: Human FAAH biochemical inhibition assay (AMC arachidonoyl amide fluorescence).
Details: not given
In a few lines:
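Solubilized membrane fraction from COS-7 cells transfected with human FAAH, used at a final 0.05 mg/ml in 50 mM Hepes pH 7.5, 1 mM EDTA, 0.2% Triton X-100. Inhibitor pre-incubated 30 min at room temperature; 20 uM final AMC arachidonoyl amide added, reaction run 4 h at room temperature, fluorescence read.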
For `OB(O)c1ccc(-c2ccccc2)cc1` [Compound I-187], the negative-log Ki (pKi) was 7.00 to 8.00.

Still in this assay, the particulars now being: Table 1, human FAAH (no asterisk); read-out: Activity (Ki).
As to `OB(O)c1cncnc1` [Compound I-89], the pKi is < 6.00.

As to `O=C(Nc1ccccc1)c1ccc(B(O)O)cc1` [Compound I-169], the negative-log Ki (pKi) is 7.00 to 8.00.

As for `CCCCCCCc1ccc(B(O)O)cc1` [Compound I-49], the pKi was > 8.00.

In the case of `OB(O)c1ccc(-c2ccccc2)s1` [Compound I-196], the negative logarithm of the Ki (pKi) was 7.00 to 8.00.

Take `OB(O)c1cccc2[nH]ccc12` [Compound I-100]: the negative logarithm of the Ki (pKi) is < 6.00.

Turning to `O=C(c1ccccc1)c1ccc(B(O)O)cc1` [Compound I-202], the pKi was > 8.00.

`COc1ccc(B(O)O)cc1` [Compound I-87]: the pKi is < 6.00.

For `CCCCOc1ccc(B(O)O)cc1` [Compound I-61], the pKi was 7.00 to 8.00.

Turning to `OB(O)c1ccc(O)cc1` [Compound I-74], the pKi is < 6.00.

As for `OB(O)c1ccc(C2CCCCC2)cc1` [Compound I-162], the pKi is > 8.00.

For the molecule `OB(O)c1ccccc1Cl` [Compound I-39], the pKi was 6.00 to 8.00.

Take `COc1ccc(CN(Cc2ccc(OC)cc2)S(=O)(=O)c2ccc(B(O)O)cc2)cc1` [Compound I-117]: the pKi is < 6.00.

On to `Cn1ccc2ccc(B(O)O)cc21` [Compound I-102], for which the pKi was < 6.00.

On to `OB(O)c1cccnc1` [Compound I-91], for which the pKi was < 6.00.

With `OB(O)c1ccc(Br)cc1` [Compound I-69], the pKi is 6.00 to 8.00.

In the case of `COc1ccc(B(O)O)cc1OC` [Compound I-77], the negative-log Ki (pKi) is < 6.00.

On to `Cc1ccc(B(O)O)c(F)c1` [Compound I-110], for which the negative logarithm of the Ki (pKi) was 6.00 to 8.00.

On to `CC(C)(C)c1ccc(B(O)O)cc1` [Compound I-94], for which the pKi was 7.00 to 8.00.

As to `OB(O)c1cccc(C(F)(F)F)c1` [Compound I-50], the negative-log Ki (pKi) is 7.00 to 8.00.

With `OB(O)c1cc(F)cc(Cl)c1` [Compound I-18], the negative-log Ki (pKi) was 7.00 to 8.00.

As for `O=C(c1ccc(B(O)O)cc1)N1CCOCC1` [Compound I-171], the negative-log Ki (pKi) was 6.00 to 8.00.

As for `COc1ccc(B(O)O)cc1Cl` [Compound I-32], the negative-log Ki (pKi) is 6.00 to 8.00.

With `Cc1ccc(B(O)O)cc1Cl` [Compound I-33], the negative-log Ki (pKi) is 6.00 to 8.00.

Take `OB(O)c1ccc(C2CCCC2)cc1` [Compound I-43]: the pKi was > 8.00.

As to `CCCCOc1c(F)c(F)c(B(O)O)c(F)c1F` [Compound I-53], the pKi is < 6.00.

`OB(O)/C=C/c1ccccc1` [Compound I-106]: the negative logarithm of the Ki (pKi) was < 6.00.

For the molecule `OB(O)c1cccc(Cl)c1` [Compound I-73], the pKi was 6.00 to 8.00.

Turning to `Cn1c(B(O)O)cc2c(OCc3ccccc3)cccc21` [Compound I-116], the negative-log Ki (pKi) was < 6.00.

The assay is the same for the next values; noted with them: Table 2, human FAAH (no asterisk); read-out: Activity (Ki).
For the molecule `O=C(C(Oc1ccc(B(O)O)cc1)c1ccccc1)N1CCCCC1` (stereo not drawn) [II-216], the negative-log Ki (pKi) was 6.00 to 8.00.

For the molecule `OB(O)c1ccc(Oc2cccc(F)c2)c(F)c1` [II-85], the negative-log Ki (pKi) was > 8.00.

`OB(O)c1ccc2sc(COc3ccccc3)cc2c1` [II-73]: the negative logarithm of the Ki (pKi) was > 8.00.

For the molecule `OB(O)c1ccc(Oc2cccc(F)c2)cc1` [II-291], the pKi is > 8.00.

`OB(O)c1ccc(OCc2ccn[nH]2)cc1F` [II-134]: the negative logarithm of the Ki (pKi) is 7.00 to 8.00.

For the molecule `OB(O)c1ccc(COCc2ccccc2)cc1F` [II-28], the negative logarithm of the Ki (pKi) was > 8.00.

In the case of `OB(O)c1cccc(OCCCc2ccccc2)c1` [II-115], the pKi was 7.00 to 8.00.

In the case of `Cc1cccc(Oc2ccc(B(O)O)cc2)c1` [II-281], the pKi is > 8.00.

On to `OB(O)c1ccc(OCc2ccccn2)cc1F` [II-175], for which the negative logarithm of the Ki (pKi) was < 6.00.

On to `OB(O)c1ccc(Oc2cccc(F)c2)cc1F` [II-12], for which the pKi is > 8.00.

On to `c1ccc(Oc2ccc(B(Oc3cccc4cccnc34)c3ccccc3)cc2)cc1` [II-75], for which the negative-log Ki (pKi) was > 8.00.

`OB(O)c1ccc(COCc2ccccc2C(F)(F)F)cc1F` [II-74]: the pKi is > 8.00.

Turning to `CNc1cc(B(O)O)cc(C(=O)O)c1` [II-87], the negative logarithm of the Ki (pKi) was < 6.00.

Consider `OB(O)c1ccc2occc2c1` [II-47], for which the negative logarithm of the Ki (pKi) is 6.00 to 8.00.

With `CC1(C)OB(c2ccc(OCc3ccncc3)cc2F)OC1(C)C` [II-179], the negative logarithm of the Ki (pKi) was 7.00 to 8.00.

`Nc1cccc(CCOc2ccc(B(O)O)c(F)c2)c1` [II-37]: the pKi is > 8.00.

On to `COc1ccc(Oc2ccc(B(O)O)cc2)cc1` [II-278], for which the negative logarithm of the Ki (pKi) was > 8.00.

Take `CCCCOc1cccc(CCOc2ccc(B(O)O)c(F)c2)c1` [II-18]: the pKi was > 8.00.

Take `OB(O)c1csc2cc(Cl)ccc12` [II-24]: the pKi was 7.00 to 8.00.

As to `OB(O)c1ccc(COCc2ccccc2-c2ccccc2)cc1` [II-94], the pKi is 7.00 to 8.00.

Regarding `OB(O)c1ccc(C(O)c2ccccc2)cc1` (stereo not drawn) [II-84], the negative logarithm of the Ki (pKi) was 7.00 to 8.00.

As to `OB(O)c1ccc(CCCc2ccccc2)cc1` [II-68], the pKi is > 8.00.

For the molecule `CCCc1ccc(-c2ccc(B(O)O)cc2)cc1` [II-297], the negative logarithm of the Ki (pKi) was 7.00 to 8.00.

In the case of `CN(Cc1ccc(B(O)O)c2ccccc12)c1ccccc1` [II-112], the negative-log Ki (pKi) was < 6.00.

As to `OB(O)c1ccc(-c2ccc(-c3ccccc3)c(F)c2)cc1F` [II-10], the negative logarithm of the Ki (pKi) is > 8.00.

Take `OB(O)c1ccc(OCc2ccccc2)c(Cl)c1` [II-313]: the pKi was 7.00 to 8.00.

In the case of `N#Cc1cc(Oc2cccc(F)c2)ccc1B(O)O` [II-203], the negative logarithm of the Ki (pKi) was > 8.00.

For the molecule `OB(O)c1ccc(OCc2cn(C3CCCC3)nn2)cc1F` [II-1], the negative logarithm of the Ki (pKi) was 7.00 to 8.00.

On to `CC1(C)OB(c2ccc(OCc3cccnc3)cc2F)OC1(C)C` [II-161], for which the negative logarithm of the Ki (pKi) is 7.00 to 8.00.

For `OB(O)c1ccc(CNc2cccc3ccccc23)cc1` [II-118], the negative-log Ki (pKi) was < 6.00.

With `OB(O)c1ccc(OCCN2CCCCC2)cc1F` [II-69], the pKi is 6.00 to 8.00.

Regarding `O=C(N[C@H](COc1ccc(B(O)O)c(F)c1)Cc1ccccc1)c1ccccc1` [II-96], the pKi is 7.00 to 8.00.

As for `OB(O)c1ccc(CSc2ccccc2)cc1` [II-231], the pKi is > 8.00.

Consider `OB(O)c1ccc(CN2CCc3ccccc32)cc1` [II-142], for which the pKi is > 8.00.

Turning to `OB(O)c1ccc(COC2CCCCC2)cc1` [II-127], the pKi is > 8.00.

Regarding `O=C(c1ccc(B(O)O)cc1)N1CCCCC1` [II-164], the negative logarithm of the Ki (pKi) was 7.00 to 8.00.

`Cc1cc(COc2ccc(B(O)O)c(F)c2)ccc1F` [II-146]: the pKi is > 8.00.

Regarding `OB(O)c1ccc(OCc2cccnc2)cc1F` [II-160], the negative-log Ki (pKi) was 7.00 to 8.00.

Regarding `OB(O)c1ccc(COCc2ccccc2)cc1` [II-132], the pKi was > 8.00.

For `OB(O)c1ccc(COCc2cccc3ccccc23)cc1` [II-111], the negative logarithm of the Ki (pKi) is > 8.00.

In the case of `COc1cc(B(O)O)ccc1Oc1cccc(F)c1` [II-282], the pKi was > 8.00.

Regarding `Cc1ccc(Oc2ccc(B(O)O)cc2)cc1[N+](=O)[O-]` [II-275], the negative logarithm of the Ki (pKi) was > 8.00.

As for `COc1cc(Oc2cccc(F)c2)ccc1B(O)O` [II-204], the pKi was > 8.00.

Turning to `Cc1ccc(C)n1-c1ccc(B(O)O)cc1` [II-32], the negative logarithm of the Ki (pKi) is < 6.00.

For the molecule `Cc1cccc(COc2ccc(B(O)O)cc2)c1F` [II-268], the pKi is 7.00 to 8.00.

On to `CN(Cc1ccccc1)[C@H](COc1ccc(B(O)O)c(F)c1)Cc1ccccc1` [II-97], for which the pKi is 6.00 to 8.00.

As to `OB(O)c1ccc(C(OCc2ccccc2)c2ccccc2)cc1` (stereo not drawn) [II-63], the pKi was 6.00 to 8.00.

Turning to `OB(O)c1ccc(OCCc2ccccc2)c(Cl)c1` [II-57], the negative logarithm of the Ki (pKi) was > 8.00.

Regarding `OB(O)c1ccc(-c2ccco2)cc1` [II-59], the pKi was 7.00 to 8.00.

As for `CC(C)c1cccc(Oc2ccc(B(O)O)cc2)c1` [II-246], the pKi was > 8.00.

Regarding `CN(C(=O)c1ccc(B(O)O)cc1)c1ccccc1` [II-230], the negative logarithm of the Ki (pKi) is 7.00 to 8.00.

In the case of `OB(O)c1ccc(OCCc2cccnc2)cc1F` [II-109], the pKi is > 8.00.

For the molecule `Cc1ccc(F)c(COc2ccc(B(O)O)cc2)c1Cl` [II-266], the pKi is 7.00 to 8.00.

For the molecule `OB(O)c1ccc(Oc2ccc(C(F)(F)F)c(Cl)c2)cc1` [II-256], the negative-log Ki (pKi) is > 8.00.

On to `CCCCB(Oc1cccc2cccnc12)c1ccc(Oc2ccccc2)cc1` [II-55], for which the negative logarithm of the Ki (pKi) is > 8.00.

Regarding `OB(O)c1ccc(COCC23CC4CC(CC(C4)C2)C3)cc1` [II-101], the negative logarithm of the Ki (pKi) is 7.00 to 8.00.

As to `CC1(C)OB(c2ccc(OCCCc3ccccc3)cc2)OC1(C)C` [II-170], the pKi was 7.00 to 8.00.

For the molecule `OB(O)c1ccc(-c2cnco2)cc1` [II-77], the pKi is 7.00 to 8.00.

Take `OB(O)c1ccc(OCc2ccc(Cl)cc2)cc1` [II-269]: the pKi is > 8.00.

As for `Cc1ccc(-c2ccc(B(O)O)c(F)c2)cc1F` [II-3], the negative logarithm of the Ki (pKi) was > 8.00.

Turning to `OB(O)c1ccc(Cn2ccc3ccccc32)cc1` [II-145], the pKi is > 8.00.

`c1ccc(CCCB(Oc2cccc3cccnc23)c2ccc(Oc3ccccc3)cc2)cc1` [II-54]: the negative-log Ki (pKi) is > 8.00.

For `OB(O)c1ccc(COc2ccccc2)cc1` [II-242], the negative-log Ki (pKi) is > 8.00.

With `CCCCCC(=O)Nc1cccc(CCOc2ccc(B(O)O)c(F)c2)c1` [II-21], the pKi was > 8.00.
